What was measured:
[1] = Octanol-water partition coefficients by ICP-MS; format: physicochemical; settings: 1:1 water:1-octanol, 48 hours, Gd by ICP-MS
Experimental: Octanol-water partition coefficients (log P) were measured by ICP-MS to determine the hydrophilicity of the Pz-Gd(III) conjugates (4d, 18). The hydrophilicity of a molecule dictates cellular permeability where a balance in amphiphilicity is desired for ease of aqueous administration and maximum cellular uptake (19). Cu-Pz-Gd(III) is slightly more hydrophobic than Zn-Pz-Gd(III) and both conjugates are more hydrophobic than DOTA-Gd(III).
DOTA-Gd(I I I), Zn-Pz-Gd(III), and Cu-Pz-Gd(III) (0.5 mg) were dissolved in 1 mL of a 1:1 mixture of water:1-octanol, respectively. After shaking for 30 seconds, these tubes were placed on a rotator for gentle mixing to equilibrate for 48 hours. Gd(III) concentration in each layer was determined by ICP-MS. Partition coefficients were calculated from the equation log P=log(Co/Cw), where log P is the logarithm of the partition coefficient, Co is the concentration of Gd in the 1-octanol layer, and Cw is the concentration of Gd in the water layer.

[2] = Relaxation time measurements (longitudinal relaxivity r1); format: physicochemical
Excerpt: The efficiency of a contrast agent in reducing the longitudinal relaxation time of water protons is defined in terms as relaxivity (mM^−1 s^−1) (14). It has been predicted by Solomon-Bloembergen-Morgan theory that a slow molecule tumbling of an MRI agent causes an increase in rotational correlation time, Tr, which in turn results in increase in relaxivity (14, 15). A common approach to increase relaxivity by slowing down the molecular tumbling is to attach Gd(III) complexes to a macromolecule through rigid linkages (12,16). The relaxivity of the monomeric DOTA-Gd(III) (DOTA is 1,4,7,10-tetraazacyclododecane-N,N,N″,N″-tetraacetic acid) used in the clinic is shown for comparison (17). […] Both the Zn-Pz-Gd(III) and Cu-Pz-Gd(III) had higher longitudinal relaxivity than DOTAGd(III).
Solutions of M-Pz-Gd(III) (M=Zn, Cu) conjugates were dissolved in 500 μL of filtered, deionized H20 (18.2 MΩ·cm) for T1 acquisition. Relaxation times were measured on a Bruker mq60 NMRanalyzer equipped with Minispec v2.51 Rev.00/NT software (Bruker Biospin, Billerica, Mass., USA) operating at 1.41 T (60 MHz) and 37° C. T1 relaxation times were measured using an inversion recovery pulse sequence (T1—ir_mb) using the following parameters: 4 scans per point, 10 data points for fitting, mono-exponential curve fitting, phase cycling, 10 ms first pulse separation, and a recycle delay and final pulse separation≧5 T1. The gadolinium concentrations of each solution were determined using ICP-MS. The inverse of the longitudinal relaxation time (1/ T1, s^−1) was plotted against gadolinium concentration (mM) and fitted to a straight line with an R^2>0.99. The slope of the fitted line was recorded as the relaxivity, r1.

Cu[Pz(C19H28N8O7Gd)2]. Pz=18,21-bis(2-(1H-1,2,3-triazole-4-yl) ethoxy)-tris-[1,4-dioxino[g,l,q](2R,3R)-2,3-dimethoxy-2,3-dimethyll 25H,27H-benzo[b]porphyrazine; C19H28N8O7Gd=N-methyl-2-aminoacetamide-4,7,10-tris(carboxymethyl)-1,4,7,10-tetraazacyclododecylgadolinium(III)) [Cu-Pz-Gd(III)]
log P [1]: −2.41
solution-phase ionic relaxivity relative to DOTA-Gd(III) ([2]; compared with clinically-used monomeric DOTA-Gd(III)): about four times greater
Ionic r1 ([2]; per Gd(III), water, 1.41 T (60 MHz), 37° C.): 11.5 mM^−1 S^−1
Molecular r1 ([2]; per molecule (2 Gd(III)), water, 1.41 T (60 MHz), 37° C.): 23.0 mM^−1 S^−1
solution phase molecular relaxivity (r1) ([2]; text of b56, unit inferred): 23 mM⁻¹ s⁻¹
